{"source": "ChEMBL document CHEMBL1629706", "about": "(Antimicrob Agents Chemother, 2010)", "key": {"Plasmodium falciparum [1]": {"test_system": "Plasmodium falciparum", "assay": "Antimalarial activity against Plasmodium falciparum", "format": "functional, organism-based"}, "Plasmodium falciparum [2]": {"test_system": "Plasmodium falciparum", "assay": "microbe, parasite or virus in culture", "settings": "isolate AK022D-0", "description": "Antimalarial activity against Plasmodium falciparum isolate AK022D-0"}, "Plasmodium falciparum [3]": {"test_system": "Plasmodium falciparum", "assay": "microbe, parasite or virus in culture", "settings": "isolate AK222", "description": "Antimalarial activity against Plasmodium falciparum isolate AK222"}, "Plasmodium falciparum [4]": {"test_system": "Plasmodium falciparum", "assay": "Antimalarial activity against Plasmodium falciparum harboring pfmdr1-86 mutant gene", "format": "functional, organism-based"}, "Plasmodium falciparum [5]": {"test_system": "Plasmodium falciparum", "assay": "microbe, parasite or virus in culture", "description": "Antimalarial activity against Plasmodium falciparum harboring pfmdr1 gene"}, "Plasmodium falciparum [6]": {"test_system": "Plasmodium falciparum", "assay": "Antimalarial activity against Plasmodium falciparum harboring pfcrt-76 mutant gene", "format": "functional, organism-based"}, "Plasmodium falciparum [7]": {"test_system": "Plasmodium falciparum", "assay": "microbe, parasite or virus in culture", "settings": "isolate AK167", "description": "Antimalarial activity against Plasmodium falciparum isolate AK167"}, "Plasmodium falciparum [8]": {"test_system": "Plasmodium falciparum", "assay": "Antimalarial activity against Plasmodium falciparum harboring 1 DNNND repeat", "format": "functional, organism-based"}, "Plasmodium falciparum [9]": {"test_system": "Plasmodium falciparum", "assay": "microbe, parasite or virus in culture", "settings": "isolate 8885", "description": "Antimalarial activity against Plasmodium falciparum isolate 8885"}, "Plasmodium falciparum [10]": {"test_system": "Plasmodium falciparum", "assay": "microbe, parasite or virus in culture", "remark": "listed apart in the source", "description": "Antimalarial activity against Plasmodium falciparum harboring 2 DNNND repeat"}, "Plasmodium falciparum [11]": {"test_system": "Plasmodium falciparum", "assay": "microbe, parasite or virus in culture", "remark": "listed apart in the source", "description": "Antimalarial activity against Plasmodium falciparum harboring pfmdr1 gene with 2 DNNND repeat"}, "Plasmodium falciparum [12]": {"test_system": "Plasmodium falciparum", "assay": "microbe, parasite or virus in culture", "settings": "isolate AK062", "description": "Antimalarial activity against Plasmodium falciparum isolate AK062"}, "Plasmodium falciparum [13]": {"test_system": "Plasmodium falciparum", "assay": "microbe, parasite or virus in culture", "settings": "isolate AK022 D-28", "description": "Antimalarial activity against Plasmodium falciparum isolate AK022 D-28"}, "Plasmodium falciparum [14]": {"test_system": "Plasmodium falciparum", "assay": "microbe, parasite or virus in culture", "settings": "isolate 8966", "description": "Antimalarial activity against Plasmodium falciparum isolate 8966"}, "Plasmodium falciparum [15]": {"test_system": "Plasmodium falciparum", "assay": "Antimalarial activity against Plasmodium falciparum harboring 3 DNNND repeat", "format": "functional, organism-based"}, "Plasmodium falciparum [16]": {"test_system": "Plasmodium falciparum", "assay": "Antimalarial activity against Plasmodium falciparum harboring pfcrt-76 mutant gene with 2 DNNND repeat", "format": "functional, organism-based"}, "Plasmodium falciparum [17]": {"test_system": "Plasmodium falciparum", "assay": "microbe, parasite or virus in culture", "settings": "isolate AK152 D-56", "description": "Antimalarial activity against Plasmodium falciparum isolate AK152 D-56"}, "Plasmodium falciparum [18]": {"test_system": "Plasmodium falciparum", "assay": "microbe, parasite or virus in culture", "settings": "isolate AK158", "description": "Antimalarial activity against Plasmodium falciparum isolate AK158"}, "Plasmodium falciparum [19]": {"test_system": "Plasmodium falciparum", "assay": "microbe, parasite or virus in culture", "settings": "isolate 9067", "description": "Antimalarial activity against Plasmodium falciparum isolate 9067"}, "Plasmodium falciparum [20]": {"test_system": "Plasmodium falciparum", "assay": "microbe, parasite or virus in culture", "settings": "isolate 9070", "description": "Antimalarial activity against Plasmodium falciparum isolate 9070"}, "Plasmodium falciparum [21]": {"test_system": "Plasmodium falciparum", "assay": "microbe, parasite or virus in culture", "settings": "isolate AK150 D-42", "description": "Antimalarial activity against Plasmodium falciparum isolate AK150 D-42"}, "Plasmodium falciparum [22]": {"test_system": "Plasmodium falciparum", "assay": "microbe, parasite or virus in culture", "settings": "isolate CDA-1553", "description": "Antimalarial activity against Plasmodium falciparum isolate CDA-1553"}, "Plasmodium falciparum [23]": {"test_system": "Plasmodium falciparum", "assay": "microbe, parasite or virus in culture", "settings": "isolate AK183", "description": "Antimalarial activity against Plasmodium falciparum isolate AK183"}, "Plasmodium falciparum [24]": {"test_system": "Plasmodium falciparum", "assay": "microbe, parasite or virus in culture", "settings": "isolate AK249", "description": "Antimalarial activity against Plasmodium falciparum isolate AK249"}, "Plasmodium falciparum [25]": {"test_system": "Plasmodium falciparum", "assay": "microbe, parasite or virus in culture", "settings": "isolate 8968", "description": "Antimalarial activity against Plasmodium falciparum isolate 8968"}, "Plasmodium falciparum [26]": {"test_system": "Plasmodium falciparum", "assay": "microbe, parasite or virus in culture", "settings": "isolate AK033 D-49", "description": "Antimalarial activity against Plasmodium falciparum isolate AK033 D-49"}, "Plasmodium falciparum [27]": {"test_system": "Plasmodium falciparum", "assay": "Antimalarial activity against Plasmodium falciparum harboring pfmdr1-86 mutant gene with 2 DNNND repeat", "format": "functional, organism-based"}, "Plasmodium falciparum [28]": {"test_system": "Plasmodium falciparum", "assay": "microbe, parasite or virus in culture", "settings": "3D7", "description": "Antimalarial activity against Plasmodium falciparum 3D7"}, "Plasmodium falciparum [29]": {"test_system": "Plasmodium falciparum", "assay": "microbe, parasite or virus in culture", "settings": "isolate AK033 D-0", "description": "Antimalarial activity against Plasmodium falciparum isolate AK033 D-0"}, "Plasmodium falciparum [30]": {"test_system": "Plasmodium falciparum", "assay": "microbe, parasite or virus in culture", "settings": "isolate 8973", "description": "Antimalarial activity against Plasmodium falciparum isolate 8973"}}, "note": "pIC50: −log10 of the molar value.", "data": [{"compound": "CCCCN(CCCC)CC(O)c1cc(Cl)cc2c1-c1ccc(Cl)cc1/C2=C/c1ccc(Cl)cc1", "note": "(stereo not drawn) [LUMEFANTRINE]", "values": [{"measurement": "pIC50", "setting": "Plasmodium falciparum [1]", "value": 7.25}]}, {"compound": "C[C@H]1[C@@H](O)O[C@@H]2O[C@@]3(C)CC[C@H]4[C@H](C)CC[C@@H]1[C@@]24OO3", "note": "[ARTENIMOL]", "values": [{"measurement": "pIC50", "setting": "Plasmodium falciparum [1]", "value": 9.00}]}, {"compound": "Clc1ccc2c(N3CCN(CCCN4CCN(c5ccnc6cc(Cl)ccc56)CC4)CC3)ccnc2c1", "note": "[PIPERAQUINE]", "values": [{"measurement": "pIC50", "setting": "Plasmodium falciparum [1]", "value": 7.25}]}, {"compound": "C=C[C@H]1CN2CC[C@H]1C[C@H]2[C@H](O)c1ccnc2ccc(OC)cc12", "note": "[QUININE]", "values": [{"measurement": "pIC50", "setting": "Plasmodium falciparum [2]", "value": 7.37}, {"measurement": "pIC50", "setting": "Plasmodium falciparum [3]", "value": 6.68}, {"measurement": "pIC50", "setting": "Plasmodium falciparum [4]", "value": 6.68}, {"measurement": "pIC50", "setting": "Plasmodium falciparum [5]", "value": 7.13}, {"measurement": "pIC50", "setting": "Plasmodium falciparum [6]", "value": 6.79}, {"measurement": "pIC50", "setting": "Plasmodium falciparum [7]", "value": 6.64}, {"measurement": "IC90", "setting": "Plasmodium falciparum [8]", "value": 157, "unit": "nM"}, {"measurement": "pIC50", "setting": "Plasmodium falciparum [9]", "value": 7.11}, {"measurement": "pIC50", "setting": "Plasmodium falciparum [10]", "value": 6.64}, {"measurement": "pIC50", "setting": "Plasmodium falciparum [11]", "value": 7.04}, {"measurement": "pIC50", "setting": "Plasmodium falciparum [12]", "value": 6.74}, {"measurement": "pIC50", "setting": "Plasmodium falciparum [13]", "value": 7.66}, {"measurement": "pIC50", "setting": "Plasmodium falciparum [14]", "value": 7.25}, {"measurement": "pIC50", "setting": "Plasmodium falciparum [15]", "value": 7.35}, {"measurement": "IC90", "setting": "Plasmodium falciparum [15]", "value": 125, "unit": "nM"}, {"measurement": "pIC50", "setting": "Plasmodium falciparum [16]", "value": 6.63}, {"measurement": "pIC50", "setting": "Plasmodium falciparum [17]", "value": 6.68}, {"measurement": "pIC50", "setting": "Plasmodium falciparum [18]", "value": 6.63}, {"measurement": "pIC50", "setting": "Plasmodium falciparum [19]", "value": 7.10}, {"measurement": "pIC50", "setting": "Plasmodium falciparum [20]", "value": 7.38}, {"measurement": "pIC50", "setting": "Plasmodium falciparum [21]", "value": 7.04}, {"measurement": "pIC50", "setting": "Plasmodium falciparum [22]", "value": 6.48}, {"measurement": "pIC50", "setting": "Plasmodium falciparum [23]", "value": 7.13}, {"measurement": "pIC50", "setting": "Plasmodium falciparum [24]", "value": 6.57}, {"measurement": "pIC50", "setting": "Plasmodium falciparum [25]", "value": 7.51}, {"measurement": "pIC50", "setting": "Plasmodium falciparum [26]", "value": 7.27}, {"measurement": "pIC50", "setting": "Plasmodium falciparum [27]", "value": 6.60}, {"measurement": "pIC50", "setting": "Plasmodium falciparum [28]", "value": 7.57}, {"measurement": "pIC50", "setting": "Plasmodium falciparum [29]", "value": 7.48}, {"measurement": "pIC50", "setting": "Plasmodium falciparum [30]", "value": 7.70}]}]}
